Data set [1] is described as follows: Toxicity in Crl:CD Sprague-Dawley rat assessed as white blood cell count in blood at 100 mg/kg, po administered daily for 14 days (reference value: 9.55+/-1.72 10^3/uL). The data set is classed as organism-based. To be noted: in vivo, 336 h, time 14 day.
Data set [2] can be described thus: Toxicity in Crl:CD Sprague-Dawley rat assessed as abnormal clinical signs at 100 mg/kg, po administered daily for 14 days. To be noted: in vivo, 336 h, time 14 day. The data set is classed as organism-based.
Data set [3] is described as follows: Toxicity in Crl:CD Sprague-Dawley rat assessed as albumin level in blood at 100 mg/kg, po administered daily for 14 days (reference value: 3.85+/-0.129 g/dL). The data set is classed as organism-based. To be noted: in vivo, 336 h, time 14 day.
The test system of the next data set is Mus musculus. Kind of data set: In vivo inhibition of EZH1/2 in CB17/Icr-Prkdcscid/CrlCrlj mouse xenografted with human KARPAS-422 cells assessed as decrease in H3K27me3 level in tumor at 3.1 to 50 mg/kg, po BID for 14 days and measured 1 day after cessation of drug dosing. The data set is classed as functional, organism-based. To be noted: dose 3.1-50 mg/kg, time 14.0 day. On the technique in general: In xenograft studies the graft and the host belong to different species.

For data set [4], the target named is RAC-beta serine/threonine-protein kinase (Homo sapiens) (UniProt P31751). Kind of data set: Inhibition of N-terminal GST-tagged human AKT2 catalytic domain (120 to 481 residues) co-expressed with His-tagged PDK1 (1 to 556 residues) in baculovirus-infected Sf21 cells using Crosstide as substrate at 1 uM in presence of ATP by Mobility shift assay.
Chain of RAC-beta serine/threonine-protein kinase (Homo sapiens) (P31751 whole entry, the tested form may be a part): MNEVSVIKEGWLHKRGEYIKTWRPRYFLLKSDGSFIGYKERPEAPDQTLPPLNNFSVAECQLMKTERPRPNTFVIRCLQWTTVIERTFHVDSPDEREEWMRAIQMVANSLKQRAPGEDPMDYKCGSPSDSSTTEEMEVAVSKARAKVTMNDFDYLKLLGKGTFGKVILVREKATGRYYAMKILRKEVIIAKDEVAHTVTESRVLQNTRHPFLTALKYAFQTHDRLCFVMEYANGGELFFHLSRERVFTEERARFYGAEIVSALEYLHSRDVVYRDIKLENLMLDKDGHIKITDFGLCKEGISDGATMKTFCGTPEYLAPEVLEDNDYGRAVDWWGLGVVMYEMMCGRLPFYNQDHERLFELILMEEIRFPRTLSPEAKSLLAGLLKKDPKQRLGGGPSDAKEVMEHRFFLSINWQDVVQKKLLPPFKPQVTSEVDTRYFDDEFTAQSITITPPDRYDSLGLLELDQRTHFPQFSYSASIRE
A short description of data set [5]: Toxicity in Crl:CD Sprague-Dawley rat assessed as atrophy of hepatocytes in liver at 100 mg/kg, po administered daily for 14 days by hematoxylin and eosin staining based analysis. The data set is classed as organism-based. To be noted: in vivo, 336 h, time 14 day.
Data set [6] in a line: Toxicity in Crl:CD Sprague-Dawley rat assessed as red blood cell count in blood at 100 mg/kg, po administered daily for 14 days (reference value: 6.71+/-0.386 10^6/uL). To be noted: in vivo, 336 h, time 14 day. The data set is classed as organism-based.
A short description of data set [7]: Toxicity in Crl:CD Sprague-Dawley rat assessed as decrease in food consumption at 100 mg/kg, po administered daily for 14 days. Format: organism-based. To be noted: in vivo, 336 h, time 14 day.
For the next data set, the system named is SNU-449. Kind of data set: Antitumor activity against human SNU-449 cells assessed as cell growth inhibition treated for 10 to 15 days. The data set is classed as functional. To be noted: time 10-15 day.
Another data set has as its system AGS. Kind of data set: Antitumor activity against human AGS cells assessed as cell growth inhibition treated for 10 to 15 days. To be noted: time 10-15 day. Format: functional.
In a further data set the test system is SUP-T1. Kind of data set: Antitumor activity against human SUP-T1 cells assessed as cell growth inhibition treated for 10 to 15 days. To be noted: time 10-15 day. Format: functional.
A further data set relates to HCC1599. Description: Antitumor activity against human HCC1599 cells assessed as cell growth inhibition treated for 10 to 15 days. Format: functional. To be noted: time 10-15 day.
A further data set deals with PC-3. Kind of data set: Antitumor activity against human PC-3 cells assessed as cell growth inhibition treated for 10 to 15 days. To be noted: time 10-15 day. The data set is classed as functional.
The subject of another data set is CEM/C2. Description: Antitumor activity against human CEM/C2 cells assessed as cell growth inhibition treated for 10 to 15 days. To be noted: time 10-15 day. The data set is classed as functional.
The test system of the next data set is HCT-116. Kind of data set: Antitumor activity against human HCT-116 cells assessed as cell growth inhibition treated for 10 to 15 days. The data set is classed as functional. To be noted: time 10-15 day.
Data set [8] can be described thus: Antitumor activity against human COV362 cells assessed as cell growth inhibition treated for 10 to 15 days. The data set is classed as functional. To be noted: time 10-15 day.
The next data set deals with NCI-H522. Description: Antitumor activity against human NCI-H522 cells assessed as cell growth inhibition treated for 10 to 15 days. The data set is classed as functional. To be noted: time 10-15 day.
The next data set concerns CW-2. Kind of data set: Antitumor activity against human CW-2 cells assessed as cell growth inhibition treated for 10 to 15 days. The data set is classed as functional. To be noted: time 10-15 day.
Another data set deals with OVCAR-3. Description: Antitumor activity against human OVCAR-3 cells assessed as cell growth inhibition treated for 10 to 15 days. To be noted: time 10-15 day. Format: functional.
Data set [9] in a line: Antitumor activity against human HUG1N cells assessed as cell growth inhibition treated for 10 to 15 days. The data set is classed as functional. To be noted: time 10-15 day.
Data set [10] can be described thus: Antitumor activity against human EB1 cells assessed as cell growth inhibition treated for 10 to 15 days. To be noted: time 10-15 day. The data set is classed as functional.
A further data set relates to Raji. Description: Antitumor activity against human Raji cells assessed as cell growth inhibition treated for 10 to 15 days. The data set is classed as functional. To be noted: time 10-15 day.
The next data set concerns SU-DHL-6. Kind of data set: Antitumor activity against human SU-DHL-6 cells assessed as cell growth inhibition treated for 10 to 15 days. To be noted: time 10-15 day. Format: functional.
Another data set has as its system SJRH30. Kind of data set: Antitumor activity against human SJRH30 cells assessed as cell growth inhibition treated for 10 to 15 days. Format: functional. To be noted: time 10-15 day.
Data set [11] addresses Histone-lysine N-methyltransferase NSD3 (Homo sapiens, UniProt Q9BZ95). Kind of data set: Inhibition of human NSD3 using Nucleosomes and [3H]SAM as substrate incubated for 30 mins to 1 hr by HotSpot kinase assay.
The test system of another data set is MDA-MB-157. Kind of data set: Antitumor activity against human MDA-MB-157 cells assessed as cell growth inhibition treated for 10 to 15 days. To be noted: time 10-15 day. Format: functional.
Data set [12] is described as follows: Antitumor activity against human OV7 cells assessed as cell growth inhibition treated for 10 to 15 days. Format: functional. To be noted: time 10-15 day.
A further data set concerns HT. Kind of data set: Antitumor activity against human HT cells assessed as cell growth inhibition treated for 10 to 15 days. To be noted: time 10-15 day. The data set is classed as functional.
The test system of the next data set is TOV112D. Kind of data set: Antitumor activity against human TOV112D cells assessed as cell growth inhibition treated for 10 to 15 days. The data set is classed as functional. To be noted: time 10-15 day.
Data set [13] in a line: Antitumor activity against human OVISE cells assessed as cell growth inhibition treated for 10 to 15 days. The data set is classed as functional. To be noted: time 10-15 day.
Another data set relates to Jurkat. Kind of data set: Antitumor activity against human Jurkat cells clone E6-1 assessed as cell growth inhibition treated for 10 to 15 days. To be noted: time 10-15 day. Format: functional.
In a further data set the test system is Hs746T. Description: Antitumor activity against human Hs746T cells assessed as cell growth inhibition treated for 10 to 15 days. The data set is classed as functional. To be noted: time 10-15 day.
For a further data set, the system named is MX1. Description: Antitumor activity against human MX1 cells assessed as cell growth inhibition treated for 10 to 15 days. The data set is classed as functional. To be noted: time 10-15 day.
The nature of data set [14]: Antitumor activity against human PCM6 cells assessed as cell growth inhibition treated for 10 to 15 days. The data set is classed as functional. To be noted: time 10-15 day.
A further data set relates to JM1. Kind of data set: Antitumor activity against human JM1 cells assessed as cell growth inhibition treated for 10 to 15 days. Format: functional. To be noted: time 10-15 day.
The subject of another data set is TGBC11TKB. Description: Antitumor activity against human TGBC11TKB cells assessed as cell growth inhibition treated for 10 to 15 days. Format: functional. To be noted: time 10-15 day.
Another data set concerns MDA-MB-175-VII. Description: Antitumor activity against human MDA-MB-175-VII cells assessed as cell growth inhibition treated for 10 to 15 days. The data set is classed as functional. To be noted: time 10-15 day.
The next data set deals with HT1197. Kind of data set: Antitumor activity against human HT1197 cells assessed as cell growth inhibition treated for 10 to 15 days. Format: functional. To be noted: time 10-15 day.
The next data set deals with NUGC-3. Description: Antitumor activity against human NUGC-3 cells assessed as cell growth inhibition treated for 10 to 15 days. The data set is classed as functional. To be noted: time 10-15 day.
A further data set deals with NALM-6. Kind of data set: Antitumor activity against human NALM-6 cells assessed as cell growth inhibition treated for 10 to 15 days. The data set is classed as functional. To be noted: time 10-15 day.
Data set [15] concerns the target Histone-lysine N-methyltransferase NSD2 (Homo sapiens, UniProt O96028, T1150A). Description: Inhibition of human NSD2 T1150A mutant using Nucleosomes and [3H]SAM as substrate incubated for 30 mins to 1 hr by HotSpot kinase assay.
A short description of data set [16]: Antitumor activity against human MDA-PCa-2b cells assessed as cell growth inhibition treated for 10 to 15 days. Format: functional. To be noted: time 10-15 day.
Another data set has as its system NAMALVA. Kind of data set: Antitumor activity against human NAMALVA cells assessed as cell growth inhibition treated for 10 to 15 days. The data set is classed as functional. To be noted: time 10-15 day.
Another data set deals with Hs-578T. Kind of data set: Antitumor activity against human Hs-578T cells assessed as cell growth inhibition treated for 10 to 15 days. Format: functional. To be noted: time 10-15 day.
For a further data set, the system named is BT-549. Kind of data set: Antitumor activity against human BT-549 cells assessed as cell growth inhibition treated for 10 to 15 days. The data set is classed as functional. To be noted: time 10-15 day.

Data on two molecules can be found in ChEMBL document CHEMBL5647694, “Novel orally bioavailable EZH1/2 dual inhibitors with greater antitumor efficacy than an EZH2 selective inhibitor” (Cancer Sci, 2017).

Calls of active or inactive are those of the source. No cut-off for these calls is given here.

Chain of Histone-lysine N-methyltransferase NSD2 (O96028 whole entry T1150A): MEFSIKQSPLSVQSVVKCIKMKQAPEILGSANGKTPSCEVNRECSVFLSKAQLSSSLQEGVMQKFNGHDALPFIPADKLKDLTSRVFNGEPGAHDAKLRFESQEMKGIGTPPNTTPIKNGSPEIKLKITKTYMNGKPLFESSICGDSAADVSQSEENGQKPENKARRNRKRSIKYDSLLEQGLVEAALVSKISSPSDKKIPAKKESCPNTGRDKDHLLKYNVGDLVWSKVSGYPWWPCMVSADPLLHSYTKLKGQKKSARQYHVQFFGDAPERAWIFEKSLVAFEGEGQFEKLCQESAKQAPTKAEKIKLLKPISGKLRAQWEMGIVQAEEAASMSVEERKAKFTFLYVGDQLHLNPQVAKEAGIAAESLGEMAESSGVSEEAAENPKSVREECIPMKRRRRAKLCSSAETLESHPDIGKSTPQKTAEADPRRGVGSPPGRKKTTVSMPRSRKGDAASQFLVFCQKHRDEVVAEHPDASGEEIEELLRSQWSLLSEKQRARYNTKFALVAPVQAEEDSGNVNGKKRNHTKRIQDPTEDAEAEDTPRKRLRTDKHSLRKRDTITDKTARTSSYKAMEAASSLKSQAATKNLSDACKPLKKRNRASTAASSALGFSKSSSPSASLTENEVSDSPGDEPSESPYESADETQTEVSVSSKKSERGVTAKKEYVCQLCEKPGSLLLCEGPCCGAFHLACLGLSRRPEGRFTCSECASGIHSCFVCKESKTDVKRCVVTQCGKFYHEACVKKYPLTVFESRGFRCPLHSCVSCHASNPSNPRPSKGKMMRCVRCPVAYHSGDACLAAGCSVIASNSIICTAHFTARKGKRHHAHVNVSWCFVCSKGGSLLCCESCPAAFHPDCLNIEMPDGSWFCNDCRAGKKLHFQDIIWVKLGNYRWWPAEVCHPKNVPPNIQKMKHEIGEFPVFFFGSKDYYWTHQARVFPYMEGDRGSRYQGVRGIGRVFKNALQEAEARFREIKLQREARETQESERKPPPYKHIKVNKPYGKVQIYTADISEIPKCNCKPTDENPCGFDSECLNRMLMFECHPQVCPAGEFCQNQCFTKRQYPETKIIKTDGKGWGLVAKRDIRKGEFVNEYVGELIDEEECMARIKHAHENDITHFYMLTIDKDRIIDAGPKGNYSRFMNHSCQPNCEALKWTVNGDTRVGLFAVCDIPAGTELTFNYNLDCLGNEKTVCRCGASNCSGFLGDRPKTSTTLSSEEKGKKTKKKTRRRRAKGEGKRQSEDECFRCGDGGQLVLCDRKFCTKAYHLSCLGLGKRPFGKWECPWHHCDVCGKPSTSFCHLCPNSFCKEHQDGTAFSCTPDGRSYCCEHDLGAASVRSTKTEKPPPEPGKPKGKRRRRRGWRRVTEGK
Chain of Histone-lysine N-methyltransferase NSD3 (Q9BZ95 whole entry): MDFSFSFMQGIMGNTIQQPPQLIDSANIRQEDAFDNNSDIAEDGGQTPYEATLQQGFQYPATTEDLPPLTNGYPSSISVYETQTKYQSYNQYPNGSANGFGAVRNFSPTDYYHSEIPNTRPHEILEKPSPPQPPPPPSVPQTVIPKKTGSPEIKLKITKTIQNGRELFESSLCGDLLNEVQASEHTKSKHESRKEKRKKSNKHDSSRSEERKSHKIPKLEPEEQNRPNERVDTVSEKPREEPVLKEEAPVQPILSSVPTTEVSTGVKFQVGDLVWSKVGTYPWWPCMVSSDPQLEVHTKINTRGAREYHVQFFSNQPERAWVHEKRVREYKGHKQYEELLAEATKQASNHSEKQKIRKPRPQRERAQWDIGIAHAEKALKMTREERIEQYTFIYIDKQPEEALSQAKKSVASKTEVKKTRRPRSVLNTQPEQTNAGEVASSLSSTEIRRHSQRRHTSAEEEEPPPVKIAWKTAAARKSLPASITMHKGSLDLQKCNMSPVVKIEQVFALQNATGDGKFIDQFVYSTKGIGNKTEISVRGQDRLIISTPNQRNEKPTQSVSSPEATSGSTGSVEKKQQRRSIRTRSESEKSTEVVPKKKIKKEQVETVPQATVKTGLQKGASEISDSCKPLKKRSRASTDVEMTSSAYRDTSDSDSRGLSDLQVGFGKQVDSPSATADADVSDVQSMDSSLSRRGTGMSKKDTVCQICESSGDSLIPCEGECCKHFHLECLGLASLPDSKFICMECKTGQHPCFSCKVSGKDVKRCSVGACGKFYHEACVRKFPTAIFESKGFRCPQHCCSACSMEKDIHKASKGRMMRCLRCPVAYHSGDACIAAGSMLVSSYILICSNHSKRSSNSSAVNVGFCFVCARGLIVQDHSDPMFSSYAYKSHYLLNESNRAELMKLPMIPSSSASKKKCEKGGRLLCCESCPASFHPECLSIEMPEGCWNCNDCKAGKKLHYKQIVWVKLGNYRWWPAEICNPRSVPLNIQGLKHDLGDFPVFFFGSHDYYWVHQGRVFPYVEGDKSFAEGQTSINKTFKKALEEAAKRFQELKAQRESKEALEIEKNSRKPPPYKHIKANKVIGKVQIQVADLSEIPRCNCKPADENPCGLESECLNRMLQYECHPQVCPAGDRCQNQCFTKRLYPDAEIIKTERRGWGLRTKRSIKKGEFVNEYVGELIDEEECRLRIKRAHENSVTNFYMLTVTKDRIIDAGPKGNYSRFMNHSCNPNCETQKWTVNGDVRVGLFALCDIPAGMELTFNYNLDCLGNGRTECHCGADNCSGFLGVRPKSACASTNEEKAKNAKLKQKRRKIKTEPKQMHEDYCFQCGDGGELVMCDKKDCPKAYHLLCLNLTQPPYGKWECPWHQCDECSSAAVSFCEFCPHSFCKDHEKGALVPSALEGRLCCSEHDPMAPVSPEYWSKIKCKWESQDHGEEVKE

Broadly, the inhibition is the relative decrease from the control value, in per cent. In the case of `Cc1cc(C)c(CNC(=O)c2cc(Br)c3c(c2C)O[C@@](C)([C@H]2CC[C@H](N(C)C)CC2)O3)c(=O)[nH]1`, the Activity in data set [1] is 4.56 10^3 /uL; in data set [2], “Non-Toxic”; in [3], 3.75 g/dL; in data set [5], “Toxic”; in [6], 6.59 10^6 /uL; in [7], “Toxic”. In addition, the inhibition entry in the data set on Mus musculus is “Active”. For the same molecule, the inhibition in data set [4] was -9.5%.
In general, GI50 refers to the concentration at which growth is held to half of that of the control. As a reminder, the IC50 is the midpoint of a concentration-inhibition curve. Turning to `Cc1cc(C)c(CNC(=O)c2cc(Cl)c3c(c2C)O[C@@](C)([C@H]2CC[C@H](N(C)C)CC2)O3)c(=O)[nH]1` [VALEMETOSTAT], the GI50 in the data set with SNU-449, with AGS, in the data set with SUP-T1, in the data set on HCC1599, in the data set with PC-3 and in the data set with CEM/C2 was more than 1000 nM in each case. For the same molecule, the GI50 with HCT-116 is more than 1000 nM; in data set [8], more than 1000 nM; in the data set on NCI-H522, 460 nM; with CW-2 it was more than 1000 nM; in the data set on OVCAR-3 it was more than 1000 nM; in data set [9], 142 nM. For the same molecule, the GI50 in [10] was 48.2 nM; in the data set on Raji, 11.2 nM; with SU-DHL-6, 0.68 nM; with SJRH30 it was more than 1000 nM; in the data set with MDA-MB-157, more than 1000 nM; in data set [12], more than 1000 nM. Moreover, the GI50 in the data set on HT was 1.74 nM; in the data set with TOV112D it was 15.4 nM; in [13], more than 1000 nM; with Jurkat, more than 1000 nM; with Hs746T it was more than 1000 nM; in the data set with MX1, more than 1000 nM. Also, the GI50 is 32.5 nM in [14]; more than 1000 nM with JM1; 86.7 nM in the data set on TGBC11TKB; 43.9 nM with MDA-MB-175-VII; 13.1 nM with HT1197; 920 nM with NUGC-3. In addition, the GI50 with NALM-6 was more than 1000 nM; in data set [16], 12.5 nM; with NAMALVA it was more than 1000 nM; in the data set on Hs-578T it was more than 1000 nM; in the data set on BT-549, more than 1000 nM. Besides, the IC50 in data set [11] and in data set [15] was 100000 nM in each case.
